Source: patent US20170290814A1, “METHODS OF TREATMENT OF CHOLESTASIS AND FIBROSIS” (GENFIT, priority 2016, published 2017)

Test system: TGFβ1-induced expression of α-SMA protein in human HSC
Assay: α-SMA ELISA in TGFβ1-activated human hepatic stellate cells
Assay type: cell-based
Details: [Cpd] = 3 μM, 1 h preincubation, TGFβ1 1 ng/ml, 48 h
Description: Serum-deprived HSC were preincubated for 1 hour with RM-5061 before the activation with the profibrogenic cytokine TGFβ1 (1 ng/ml). After 48 hours of incubation, the α-SMA content was measured by ELISA. The obtained values were transformed into percentage inhibition over TGFβ1 control. Data are presented as mean (quadruplicates)±standard error of the mean (SEM). Statistical analyses were performed by one-way ANOVA followed by Bonferroni post-hoc tests, using Sigma Plot 11.0 software. [*: p<0.05; **: p<0.01; ***: p<0.001 (comparison versus TGFβ1 1 ng/mL group)]. The curve fitting and the calculation of half maximal inhibitory concentration (IC50) were performed with XLFit software 5.3.1.3.
Serum-deprived HSC were preincubated for 1 hour with Cpd.5 before the activation with the profibrogenic cytokine TGFβ1 (1 ng/ml). After 48 hours of incubation, the expression of α-SMA was measured by ELISA. The obtained values were transformed into percentage inhibition over TGFβ1 control. Data are presented as mean (triplicates)±standard deviation (SD). Statistical analyses were performed by one-way ANOVA followed by Bonferroni post-hoc tests, using Sigma Plot 11.0 software. [*: p<0.05; **: p<0.01; ***: p<0.001 (comparison versus TGFμ1 1 ng/mL group)]. The curve fitting and the calculation of half maximal inhibitory concentration (IC50) were performed with XLFit software 5.3.1.3.
The human primary hepatic stellate cells (hHSC) (Innoprot) were cultured in STeCM medium (ScienCell cat #5301) that was supplemented with 2% fetal bovine serum (FBS, ScienCell cat #0010), 1% penicillin/streptomycin (ScienCell cat #0503) and stellate cell growth supplement (SteCGS; ScienCell cat #5352). Cell culture flasks were coated with Poly-L Lysine (Sigma cat #P4707) for a better adherence.
The human primary hepatic stellate cells (hHSC) (Innoprot) were cultured under standard conditions, as described above. The cells were subsequently plated at a density of 2×10^4cells/well or 6,5×10^3 cells/well into 96-well or 384-well plates respectively. The next day, cell-culture medium was removed, and cells were washed with PBS (Invitrogen cat #14190). Then, hHSC were deprived for 24 hours in serum-free and SteCGS-free medium. For the treatments with compounds of formula (I), the serum-deprived hHSC were preincubated for 1 hour with the compounds followed by addition of the profibrogenic stimuli TGFβ1 (PeproTech cat #100-21, 1 ng/mL) in serum-free and SteCGS-free medium for an additional 48 hour period. At the end of treatment, the cell culture supernatants of treated-HSC were transferred into a new plate before storage at −20° C.The cells were washed with PBS (Invitrogen, cat #14190) before the addition of lysis buffer (CelLytic™ MT reagent; Sigma #C3228). Plates were then incubated for 30 min on ice using a plate shaker, before storage at −20° C.
The level of α-SMA was measured using a Sandwich ELISA. Briefly, the wells of an ELISA plate were first coated with the capture antibody (mouse monoclonal anti-ACTA2, Abnova) at 4° C. overnight. After 3 washes in PBS +0.2% Tween 20, a blocking solution consisting of PBS +0.2% BSA was added for one hour followed by another washing cycle. The cell lysates were transferred into the wells for binding to the capture antibody for a period of 2 h at room temperature. After the washing procedure, the detection antibody (biotinylated mouse monoclonal anti-ACTA2, Abnova) was added for 2 hours at room temperature followed by 3 washes. For the detection, an HRP-conjugated Streptavidin (R&D Systems cat #DY998) was first applied for 30 min at room temperature. After washing, the HRP substrate TMB (;BD, #555214) was added and incubated for 7 min at room temperature in the dark. Upon oxidation, TMB forms a water-soluble blue reaction product that becomes yellow with addition of sulfuric acid (solution stop), enabling accurate measurement of the intensity at 450 nm using a spectrophotometer. […]

SMILES | % I over TGFβ (α-SMA)
O=C(O)c1ccccc1-c1ccccc1C(=O)Nc1nc2ccccc2s1 [Cpd1, 2′-(benzo[d]thiazol-2-ylcarbamoyl)-[1,1′-biphenyl]-2-carboxylic acid] | 40%
O=C(Nc1nc(-c2ccc3ccccc3c2)cs1)c1cc([N+](=O)[O-])ccc1Cl [Cpd4, 2-chloro-N-[4-(2-naphthyl)-1,3-thiazol-2-yl]-5-nitrobenzamide] | 53%
COc1ccccc1C(=O)Nc1nc(-c2cccs2)c(NC(=O)c2ccccc2)s1 [Cpd2, N-(5-benzamido-4-(thiophen-2-yl)-1,3-thiazol-2-yl)-2-methoxybenzamide] | 43%
Cc1sc(NC(=O)c2c(F)cccc2F)nc1-c1ccccc1 [Cpd3, 2,6-difluoro-N-(5-methyl-4-phenyl-1,3-thiazol-2-yl)benzamide] | 48%
